Entries after “also recorded” stand apart in the source; their conditions may differ.
Assays:
[1] = tested on: enteroendocrine and goblet cells; assay: Enteroendocrine (chromogranin A) and goblet cell (Alcian blue) differentiation; type: in vivo, mice; settings: FIG. 6a-b
Method: (§1) Tissues were fixed in 10% formalin, paraffin embedded, and sectioned. Antigen retrieval was performed with Borg Decloaker RTU solution (Biocare Medical) in a pressurized Decloaking Chamber (Biocare Medical) for 3 minutes. Antibodies: rat anti-BrdU (1:2000; Abeam 6326), rabbit phospho-S6 Ser235/236 (1:500, CST 4858), rabbit cleaved caspase 3 (1:500; CST 9664), rabbit chromogranin A (1:3000, Abeam 15160), rabbit Lysozyme (1:2000; Thermo), rabbit Bst-1 (1:1000, Abeam 74301) and mouse Bst-1 (1:100 to 500, BD Pharmingen). For mouse Bst-1, the M.O.M (mouse on mouse) kit was used according to the manufacturer's instructions (Vector labs PK-2200). Biotin conjugated secondary donkey anti-rabbit or rat antibodies were used from Jackson ImmunoResearch. The Vectastain Elite ABC immunoperoxidase detection kit (Vector Labs PK-6101) followed by Dako Liquid DAB+ Substrate (Dako) was used for visualization. For immunofluorescence Alexa Fluor 568 secondary antibodies (Invitrogen) were used. All antibody incubations were performed with Common Antibody Diluent (Biogenex).

Paneth cells [2] = assay: Paneth cell numbers in small intestine after 10 Gy ionizing radiation (histology); type: in vivo, mice; settings: for number of Paneth cells vs irradiated control, pre- and post-treatment: 4 mg/kg IP daily 1 week, 10 Gy gamma rays, then intermittent rapamycin two weeks, FIG. 14c; for number of Paneth cells vs irradiated control, post-treatment only: 10 Gy followed by intermittent rapamycin over two weeks, FIG. 14b
Method: Paneth cells are essential to the survival of Lgr5+ intestinal stem cells. […] The clonogenicity of ISCs is enhanced by co-culturing of these cells with Paneth cells from mice treated with caloric restriction or rapamycin (FIG. 13a). […] Mice were also treated with 10 Gy of radiation followed by intermittent treatment with rapamycin over the two weeks. […] Accordingly, rapamycin and derivatives or analogs or other agents thereof which inhibit mTOR, and/or and caloric restriction can be employed as agents for increasing the number and function of intestinal stem cells and Paneth cells, and as radioprotective agents against the acute and late toxicities of deliberate and accidental exposure to ionizing radiation.

Paneth cells [3] = assay: Frequency of Paneth cells by flow cytometry in rapamycin-treated mice; type: in vivo; settings: Rapamycin 4 mg/kg daily i.p., 4 weeks, n=13-14, FIG. 3h
Text: (§2) Mice were housed in the Unit for Laboratory Animal Medicine at the Whitehead Institute for Biomedical Research. Lgr5-EGFP-IRES-CreERT2 mice (Strain name: B6.129P2-Lgr5tm1(cre/ERT2)Cle/J, Stock Number: 008875) were purchased from Jackson Laboratories. UbiquitinC-CreERT2 mice were obtained from the Jackson Laboratory (Strain Name: B6; 129S-Tg(UBC-cre/ERT2)1Ejb/J, Stock Number: 007001). Rictor floxed mice were generated as described in^27 and backcrossed to C57BL/6 for at least 6 generations. TSC1^loxp/loxp mice were the generous gift of D. Kwiatkowski (Harvard Medical School) and backcrossed to C57BL/6 for at least 6 generations. Rosa26-CreERT2 mice (Rosa26 or R26) were obtained from the Jackson Laboratory (Strain 15 Name: B6.129-Gt(ROSA)26Sor^iml(cre/ERT2)Tyj/J, Stock Number 008463). CR was achieved by providing individual or paired mice a daily portion of a chow diet fortified with vitamins and minerals amounting to 60% of the daily food intake of their ad libitum counterparts^20. All adult mice used in CR experiments were between the ages of 10 to 24 weeks and were sacrificed prior to their daily feeding. Rictor or TSC1 was excised by treatment with tamoxifen suspended in corn or sunflower seed oil (Spectrum) at a concentration of 10 mg/mL, and 200 μl per 25 g of body weight was injected intraperitoneally into mice once daily for 5-7 days. […]

cleaved caspase 3 = assay: Enterocyte apoptosis, cleaved caspase 3 immunostain; type: in vivo, mice; settings: n=3 per group, FIG. 7
Method: as §1

intestinal crypts = assay: Organoid formation (clonogenicity) of intestinal crypts isolated from treated mice; type: in vivo
Text: Mice were housed in the Unit for Laboratory Animal Medicine at the Whitehead Institute for Biomedical Research. Lgr5-EGFP-IRES-CreERT2 mice (Strain name: B6.129P2-Lgr5tm1(cre/ERT2)Cle/J, Stock Number: 008875) were purchased from Jackson Laboratories. UbiquitinC-CreERT2 mice were obtained from the Jackson Laboratory (Strain Name: B6; 129S-Tg(UBC-cre/ERT2)1Ejb/J, Stock Number: 007001). Rictor floxed mice were generated as described in^27 and backcrossed to C57BL/6 for at least 6 generations. TSC1^loxp/loxp mice were the generous gift of D. Kwiatkowski (Harvard Medical School) and backcrossed to C57BL/6 for at least 6 generations. Rosa26-CreERT2 mice (Rosa26 or R26) were obtained from the Jackson Laboratory (Strain 15 Name: B6.129-Gt(ROSA)26Sor^iml(cre/ERT2)Tyj/J, Stock Number 008463). CR was achieved by providing individual or paired mice a daily portion of a chow diet fortified with vitamins and minerals amounting to 60% of the daily food intake of their ad libitum counterparts^20. All adult mice used in CR experiments were between the ages of 10 to 24 weeks and were sacrificed prior to their daily feeding. Rictor or TSC1 was excised by treatment with tamoxifen suspended in corn or sunflower seed oil (Spectrum) at a concentration of 10 mg/mL, and 200 μl per 25 g of body weight was injected intraperitoneally into mice once daily for 5-7 days. […] Mice were allowed to recover for at least 7 days after the last tamoxifen injection prior to any experiments. In vivo fate mapping in Lgr5-EGFP-IRES-reERT2; Rosa26loxpstoploxp-LacZ compound mice was done with a single injection of tamoxifen given at 200 μl per 25 g. As described previously^28, Rapamycin (LC Laboratories) was administered by intraperitoneal injection for 7 to 28 consecutive doses at 4 mg/kg. It was reconstituted in absolute ethanol at 10 mg/ml and diluted in 5% Tween-80 (Sigma) and 5% PEG-400 (Hampton Research) before injection. The final volume of all injections was 200 μl. Regular insulin (Lilly) was administered at 0.75 U/kg diluted in PBS 20 minutes prior to sacrificing fasted mice.
Small intestines were removed and the fat/mesentery was dissected away. The intestinal lumen was washed with ice cold PBS (Mg—/Ca—) using a 18 G feeding needle (Roboz FN-7905) until the intestines appeared white/pink. They were then opened longitudinally. The mucous was removed by gently rubbing the intestine between fingers in cold PBS. The intestines were cut into 3 to 5 mm fragments and placed into 50 ml conical tubes that were fill with ice cold 30 ml of PBS (Mg—/Ca—)/EDTA (10 mM). The samples were incubated and shook intermittently on ice for 30 minutes continuously discarding and replacing (at least 3 times) the supernatant. […]

Lgr5^hi ISCs = assay: Frequency of Lgr5hi ISCs by flow cytometry in rapamycin-treated mice; type: in vivo; settings: Rapamycin 4 mg/kg daily i.p., 4 weeks, n=13-14, FIG. 3g
Text: as §2

CO[C@H]1C[C@@H]2CC[C@@H](C)[C@@](O)(O2)C(=O)C(=O)N2CCCC[C@H]2C(=O)O[C@H]([C@H](C)C[C@@H]2CC[C@@H](O)[C@H](OC)C2)CC(=O)[C@H](C)/C=C(\C)[C@@H](O)[C@@H](OC)C(=O)[C@H](C)C[C@H](C)/C=C/C=C/C=C/1C [Rapamycin, sirolimus]
effects on enteroendocrine and goblet cell differentiation [1]: minimal effects
number of Paneth cells vs irradiated control, pre- and post-treatment (Paneth cells [2]): increase in the number of morphologically normal Paneth cells
number of Paneth cells vs irradiated control, pre- and post-treatment (Paneth cells [2]; listed as rapamycin): significantly higher numbers of Paneth cells
number of Paneth cells vs irradiated control, post-treatment only (Paneth cells [2]): increase in the number of morphologically normal Paneth cells
number of Paneth cells vs irradiated control, post-treatment only (Paneth cells [2]; listed as rapamycin): significantly higher numbers of Paneth cells
increase in frequency of Paneth cells vs vehicle (Paneth cells [3]): more than 1.5 fold
cleaved caspase 3 (enterocyte apoptosis) vs AL controls (cleaved caspase 3): no increase
effect of combination of CR and rapamycin on crypt organoid formation (intestinal crypts; CR+R treated mice, FIG. 3i): non-additive
organoids per intestinal crypt, increase vs vehicle-treated mice (intestinal crypts; crypts isolated from mice given 4 mg/kg daily, n=3-5, FIG. 3i): ~2 fold
organoid body formation of crypts compared with CR (intestinal crypts; mice treated for 1 week, FIG. 3i): as capable of forming organoid bodies as those from mice on CR
crypt clonogenicity after Rictor deletion (mTORC2 independence) (intestinal crypts; rapamycin 1 to 3 weeks after Rictor-deletion in Rictorfl/fl UBC-CreERT2 mice vs WT, FIG. 3k): increased the clonogenicity of crypts irrespective of whether they were isolated from adult intestines expressing or lacking Rictor; also recorded: increased crypt clonogenicity to a similar extent as those isolated from rapamycin treated wild-type (WT) mice
increase in frequency of ISCs vs vehicle (Lgr5^hi ISCs): more than 1.5 fold
